What all share (assay): NCI-60 cell line screen, 48 h
Assay [1] relates to HS 578T breast.
The subject of assay [2] is K-562 leukemia.
For assay [3], the system named is MOLT-4 leukemia.
Assay [4] deals with COLO 205 colon.
The test system of assay [5] is BT-549 breast.
Assay [6] concerns MCF7 breast.
Assay [7] relates to EKVX NSCLC.
The subject of assay [8] is MDA-MB-231 breast.
Assay [9] has as its system MALME-3M melanoma.
Assay [10] concerns UACC-257 melanoma.
Assay [11] relates to SK-MEL-2 melanoma.
The test system of assay [12] is IGROV1 ovarian.
In assay [13] the test system is OVCAR-4 ovarian.
For assay [14], the system named is NCI/ADR-RES ovarian.
In assay [15] the test system is RXF 393 renal.
Assay [16] has as its system HL-60(TB) leukemia.
The test system of assay [17] is NCI-H460 lung.
The test system of assay [18] is HCC-2998 colon.
In assay [19] the test system is SNB-75 CNS.
Assay [20] deals with RPMI-8226 leukemia.

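A five-concentration, 48-hour dose response in 96-well plates underlies each endpoint, interpolated linearly between surrounding concentrations. The concentration for full growth arrest is given as TGI.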 Where only a bound is given, the exact number is not on record here.

On to `COc1cc(O)c2c(=O)c3ccccc3n(C)c2c1`, for which the TGI in assay [1] was 59.2 µM; in assay [2], more than 100 µM; in assay [3], more than 100 µM; in assay [4], more than 100 µM; in [5], more than 100 µM; in [6] it was more than 100 µM. Moreover, the TGI in assay [7], in [8], in [9], in assay [10], in [11] and in [12] was more than 100 µM throughout. For the same molecule, the TGI in [13] is more than 100 µM; in assay [14] it was more than 100 µM; in [15], 51.4 µM; in assay [16], more than 100 µM; in [17] it was more than 100 µM; in assay [18], more than 100 µM.

With `CN(C)c1ccc(/C=C2\C[C@H]3[C@@H]4CCC5=CC(=O)CC[C@]5(C)[C@H]4CC[C@]3(C)C2=O)cc1`, the TGI in [1] was more than 100 µM; in assay [2], more than 100 µM; in [3], more than 100 µM; in assay [19], more than 100 µM; in [4] it was 64.8 µM; in assay [5] it was more than 100 µM. The TGI in assay [6] is more than 100 µM; in assay [7], more than 100 µM; in [8], more than 100 µM; in [9], 72.9 µM; in [10], 67.3 µM; in assay [11], more than 100 µM. In addition, the TGI in assay [20], in assay [12], in [13], in assay [14], in [15] and in [16] was more than 100 µM each time. In assay [17], this molecule showed a TGI of 51.1 µM.

`Cn1c2c(c3c(=O)[nH]ncc31)CCc1ccccc1-2`: the TGI is more than 100 µM in assay [1]; more than 100 µM in assay [2]; 75 µM in assay [3]; 87.8 µM in assay [19]; 81.1 µM in assay [4]; 78.2 µM in [5]. The TGI was 79 µM in assay [6]; more than 100 µM in [7]; 47.3 µM in assay [8]; 88.5 µM in assay [9]; 40.6 µM in [10]; 57.1 µM in assay [11]. The TGI is 67.4 µM in assay [20]; 60.2 µM in [12]; more than 100 µM in [13]; 89 µM in assay [14]; 39.6 µM in assay [15]; 60.6 µM in [16]. This molecule also registered a TGI in [17] of 33.6 µM.

Take `COc1cccc(N=N/C(=N/NC(=O)c2cc(Cl)ccc2O)c2ccc(N(CCC#N)CCC#N)cc2C)c1`: the TGI in assay [1] is more than 100 µM; in assay [2], more than 100 µM; in assay [3], 89.6 µM; in assay [19] it was more than 100 µM; in assay [4], 41.2 µM; in assay [5], more than 100 µM. Also, the TGI in assay [6] was 79.1 µM; in [7], more than 100 µM; in assay [8], more than 100 µM; in assay [9] it was 48.7 µM; in [10], 59.5 µM; in assay [11], more than 100 µM. Also, the TGI in [20], in [12], in [13], in assay [14], in [15] and in assay [17] was more than 100 µM in each case. For the same molecule, the TGI in assay [18] is 92 µM.

Turning to `CC1=C(C(=O)OCCc2ccc([N+](=O)[O-])cc2)C(c2ccccc2C(F)(F)F)C(C(=O)OC(C)C)=C(C)N1` (configuration not stated), the TGI was 61.6 µM in [1]; more than 100 µM in assay [2]; 7.95 µM in assay [3]; more than 100 µM in assay [19]; 16.3 µM in assay [4]; more than 100 µM in assay [5]. In addition, the TGI in [6] was more than 100 µM; in assay [7], 6.51 µM; in assay [8], more than 100 µM; in [9], 28.5 µM; in assay [10], more than 100 µM; in assay [11] it was 7.16 µM. Further, the TGI in [20] is more than 100 µM; in assay [12], more than 100 µM; in assay [13], more than 100 µM; in [14], more than 100 µM; in assay [15], 7.34 µM; in assay [17], more than 100 µM. Further, the TGI in assay [18] is more than 100 µM.

In the case of `O=C(CN1CCOCC1)c1ccc2[nH]c(=O)oc2c1`, the TGI in [1], in assay [2], in assay [3], in assay [19], in assay [4] and in assay [5] was more than 100 µM in each case. For the same molecule, the TGI in assay [6], in assay [7], in assay [8], in [9], in assay [10] and in [11] was more than 100 µM each time. Besides, the TGI in assay [20], in assay [12], in [14], in assay [15], in [16] and in assay [17] was more than 100 µM each time.

As for `CCOC(=O)CC/C(C)=N\n1c(Cc2ccc(Cl)cc2)n[nH]c1=O`, the TGI in assay [1], in assay [2], in assay [3], in [19], in assay [5] and in assay [6] was more than 100 µM in each case. The TGI in [8], in assay [9], in assay [10], in assay [11], in assay [20] and in [12] was more than 100 µM each time. The TGI in [14], in assay [15], in [16], in assay [17] and in [18] was more than 100 µM throughout.

In the case of `Cc1ccc2c(=O)c(-c3nnsn3)c[nH]c2n1`, the TGI in [1], in [2], in assay [3], in assay [4], in [5] and in [6] was more than 100 µM in each case. For the same molecule, the TGI in assay [7], in [8], in assay [9], in assay [10], in assay [11] and in assay [20] was more than 100 µM in each case. Besides, the TGI in assay [12], in [13], in assay [14], in assay [15], in assay [16] and in assay [17] was more than 100 µM each time.

Regarding `O=[N+]([O-])c1nccn1CCCN=c1c2ccccc2n(O)c2ccccc12`, the TGI in [1] was more than 100 µM; in assay [2] it was more than 100 µM; in [3] it was more than 100 µM; in assay [19], more than 100 µM; in [4] it was 55.6 µM; in assay [5] it was more than 100 µM. In addition, the TGI in assay [6], in assay [7], in [8], in assay [9], in assay [10] and in assay [11] was more than 100 µM each time. Further, the TGI in assay [20], in [12], in [13], in assay [14], in assay [15] and in [16] was more than 100 µM in each case. The molecule further came in with a TGI in assay [17] of more than 100 µM.

For `N#Cc1cc2c(n(C3OC(CO)C(O)C(O)C3O)c1=S)CCCCC2` (configuration not stated), the TGI in assay [1], in [2], in [3], in assay [19], in [4] and in assay [5] was more than 100 µM in each case. In addition, the TGI in assay [6], in assay [8], in assay [9], in assay [10], in assay [11] and in assay [20] was more than 100 µM each time. Also, the TGI in [12], in assay [13], in assay [14], in assay [15], in assay [16] and in assay [17] was more than 100 µM each time. The TGI in assay [18] is more than 100 µM.

`C/C(=N\N=C(\N)OB(F)F)c1ccccn1`: the TGI in assay [1] is more than 100 µM; in assay [2], more than 100 µM; in assay [19] it was 55.7 µM; in [4], more than 100 µM; in [5], more than 100 µM; in assay [6], more than 100 µM. The TGI in assay [7], in [8], in [9], in assay [10], in assay [11] and in assay [12] was more than 100 µM in each case. The TGI is more than 100 µM in [13]; more than 100 µM in [14]; 42.6 µM in assay [15]; more than 100 µM in assay [16]; more than 100 µM in [17]; more than 100 µM in [18].

Take `NNC(=O)CC(=O)Nc1ccc(C(=O)O)cc1`: the TGI in assay [1], in assay [2], in assay [3], in assay [19], in [4] and in [5] was more than 100 µM throughout. Moreover, the TGI in assay [6], in assay [7], in [8], in assay [9], in [10] and in [11] was more than 100 µM in each case. The TGI in assay [20], in assay [12], in [13], in [14], in assay [15] and in assay [16] was more than 100 µM each time. This molecule displayed a TGI in assay [17] of more than 100 µM.

Source of the values: PubChem BioAssay (NCI).
